Test results: paper PMC2933066 (Bioorganic & medicinal chemistry letters, 2010)
Converted amounts (≈) assume the structure as drawn.

Assays:
[1] = tested on: A549 (human lung adenocarcinoma); settings: cited from earlier work
[2] = tested on: KB (human epidermoid carcinoma of the nasopharynx); settings: cited from earlier work
[3] = tested on: tubulin; assay type: biochemical; settings: read-out: Inhibition of tubulin assembly IC50 (μM) ± SD

SMILES | ED50 against A549 [1] [µg/mL] | ED50 against KB [2] [µg/mL] | IC50 [3] [µM]
COc1cc2c(c(OC)c1O)-c1ccc(SC)c(=O)cc1C(NC(C)=O)CC2 (centres unmarked) [Compound 3, 2-Demethylthiocolchicine] | 0.01 (≈ 0.0249 µM) | 0.01 (≈ 0.0249 µM) | 
CCCN([C@H]1CCc2cc(OC)c(OC)c(OC)c2-c2ccc(SC)c(=O)cc21)S(=O)(=O)c1ccccc1[N+](=O)[O-] [Compound 13] |  |  | > 40
CN[C@H]1CCc2cc(OC)c(O)c(OC)c2-c2ccc(SC)c(=O)cc21 [Compound 15] |  |  | > 40
CN[C@H]1CCc2cc(OC)c(OP(=O)(O)O)c(OC)c2-c2ccc(SC)c(=O)cc21 [Compound 16] |  |  | > 40
